Measured values reported in patent US6939968B2, “Atropisomers of 3-substituted-4-arylquinolin-2-one derivatives” (Bristol-Myers Squibb Company, priority 2002, dated 2005).
“And” between values parts separate entries of the source, which are not always exact repeats. Equal entries are not always repeated.

What was measured:
[1] = system: cloned mammalian (mSlo or hSlo) BK channels heterologously expressed in Xenopus oocytes; experiment: BK-mediated outward current in Xenopus oocytes, two-electrode voltage clamp; type: cell-based; conditions: for Current: compounds at 10 μM, IBTX at supramaximal concentration (50-100 nM); for BK Current: at 10 μM, percent increase over BK current in controls, voltage step to +140 mV, IBTX-sensitive current
Description: The ability of the compounds of the invention to open BK channels and increase whole-cell outward (K+) BK-mediated currents was assessed under voltage-clamp conditions by determining their ability to increase cloned mammalian (mSlo or hSlo) BK—mediated outward current heterologously expressed in Xenopus oocytes [Butler, A., et al., Science, 261: 221-224 (1993); Dworetzky, S. I., et al., Mol. Brain Res., 27: 189-193 (1994); Gribkoff, V. K., et al., Mol. Pharmacol., 50:206-217 (1996)]. The two BK constructs employed represent nearly structurally identical homologous proteins, and have proven to be pharmacologically indistinguishable in our tests. To isolate BK current from native (background, non-BK) current, the specific and potent BK channel-blocking toxin iberiotoxin (IBTX) [Galvez, A., et al., J. Biol. Chem., 265: 11083-11090 (1990)] was employed at a supramaximal concentration, e.g., 50-100 nanomolar (“nM”). The relative contribution of BK channel-mediated current to total outward current was determined by subtraction of the current remaining in the presence of IBTX (non-BK current) from the current profiles obtained in all other experimental conditions (control, drug, and wash) [Gribkoff, V. K. et al., Mol. Pharmacol., 50:206-217 (1996)]. […] All compounds were tested in 5-10 oocytes and are reported at the indicated concentration of 10 micromolar (“μM”); the effect of the selected compounds of the invention on BK current was expressed as the percent of control IBTX-sensitive current at a single transmembrane voltage (+140 mV) and is listed in Table 1. Recordings were accomplished using standard two-electrode voltage clamp techniques [Stuhmer, W., et al., Methods in Enzymology, Vol. 207: 319-339 (1992)]; voltage-clamp protocols consisted of 500-750 milliseconds (“ms”) duration step depolarizations, from a holding potential of −60 mV, to a final voltage up to +140 mV in 20 mV steps. Table 2 lists the current-voltage (I-V) data for two compounds of the invention, applied to oocytes at a concentration of 10 μM. The experimental media (modified Barth's solution) consisted of millimolar (“mM”): NaCl (88), NaHCO3 (2.4), KCl (1.0), HEPES (10), MgSO4 (0.82), Ca(NO3)2 (0.33), CaCl2 (0.41); pH 7.5.

[2] = system: stress-induced colonic motility (fecal pellet output); experiment: Air jet stress-induced colonic motor activity; type: in vivo; conditions: rats, 20 mg/kg ip
Description: Environmental stress is believed to play a role in irritable bowel syndrome and other altered bowel motility states. […] Based on this, we tested the hypothesis that maxi-K^+potassium channel openers of the present invention can be effective in reducing stress-induced acceleration in colonic motility, as indexed by fecal pellet output.
Rats were randomly divided into 2 groups and treated with vehicle (polyethylene glycol (400 grams per mole), 1 mL/kg, ip) or the compound of Example 1 in racemate form (20 mg/kg) at time zero. At 1.5 hr post-treatment, each rat was partially restrained in plexiglas container and was subjected to air-jet stress. This was brought about by exposing each of the partially-restrained animals to 3-4 episodes of 2 minute long air jets with an interval of 8-10 minutes between episodes. The fecal output was collected and the wet weight was recorded. The data were analyzed by combining individual output within each group to calculate a group mean and the means were compared using a statistical test (unpaired, two-tailed t-test; p<0.05).

Compound	Current ([1]; voltage 0 mV)	Current ([1]; voltage 20 mV)	Current ([1]; voltage 40 mV)	Current ([1]; voltage 60 mV)	Current ([1]; voltage 80 mV)	Current ([1]; voltage 100 mV)	Current ([1]; voltage 120 mV)	Current ([1]; voltage 140 mV)	Current ([1]; voltage −20 mV)	Current ([1]; voltage −40 mV)	BK Current ([1]; listed as 3-atropisomer A)	BK Current [1]	fecal output (wet weight, group mean) ([2]; air-jet stress 1.5 hr post-treatment, vehicle group 0.37 grams)	animals showing a defecatory response to air-jet ([2]; vehicle group 9/12)	BK Current ([1]; listed as 3-atropisomer B)
Cn1c(=O)c(CCO)c(-c2cc(Cl)ccc2O)c2cc(C(F)(F)F)ccc21 [Example 2]	0 μA	0 μA	0.2 μA	0.6 μA	1.4 μA	2.5 μA	3.9 μA	5.6 μA	0 μA	0 μA	–	–	–	–	–
O=c1[nH]c2ccc(C(F)(F)F)cc2c(-c2cc(Cl)ccc2O)c1CCO (single isomer, unassigned) [Example 3-atropisomer A, (−) 4-(5-Chloro-2-hydroxy-phenyl)-3-(2-hydroxy-ethyl)-6-trifluoromethyl-1H-quinolin2-one]	–	–	–	–	–	–	–	–	–	–	291.8 ± 26.8%	–	–	–	–
Cn1c(=O)c(CCO)c(-c2cc(Cl)ccc2O)c2cc(C(F)(F)F)ccc21 (single isomer, unassigned) [Example 5-atropisomer A, (−) 4-(5-Chloro-2-hydroxy-phenyl)-1-methyl-3-(2-hydroxy-ethyl)-6-trifluoromethyl-1H-quinolin2-one]	–	–	–	–	–	–	–	–	–	–	–	360.8 ± 29.6% and 183.6 ± 9.50%	–	–	–
O=c1[nH]c2ccc(C(F)(F)F)cc2c(-c2cc(Cl)ccc2O)c1CCO (racemic) [Example 1, 4-(5-Chloro-2-hydroxyphenyl)-3-(2-hydroxyethyl)-6 (trifluoromethyl)-2(1H)-Quinolinone]	0.2 μA	0.7 μA	1.8 μA	3.3 μA	4.9 μA	6.6 μA	8.4 μA	10.2 μA	0 μA	0 μA	–	–	0.03 grams	3 out of 11	–
O=c1[nH]c2ccc(C(F)(F)F)cc2c(-c2cc(Cl)ccc2O)c1CCO (single isomer, unassigned) [Example 3-atropisomer B, (+) 4-(5-Chloro-2-hydroxy-phenyl)-3-(2-hydroxy-ethyl)-6-trifluoromethyl-1H-quinolin2-one]	–	–	–	–	–	–	–	–	–	–	–	–	–	–	213.9 ± 21.4%
iberiotoxin (QFTDVDCSVSKECWSVCKDLFGVDRGKCMGKKCRCYQ; UniProt P24663 1-37, looked up) [IBTX, reference compound]	0 μA	0 μA	0 μA	0 μA	0.1 μA	0.2 μA	0.6 μA	1.2 μA	0 μA	0 μA	–	–	–	–	–
